pEC50, pIC50, pKd: −log10 of the molar value.
Legend:
proliferating HSCs = settings: Gfap-Tk mice, carbon tetrachloride and allyl alcohol for 10 days, co-administration of ganciclovir; cited from earlier work
TrkB [1] = biological target: T1, TrkB (Homo sapiens, UniProt Q16620); settings: cited from earlier work
TrkB [2] = biological target: T1, TrkB; settings: read-out: IC50 for inhibition of BDNF binding to TrkB; cited from earlier work
HepG2 cells = test: Cell proliferation assay (CellTiter-Glo) in HepG2 cells; type: cell-based, human; settings: Loxo-195 final concentration 5 nM, HepG2
Procedure: (§1) Cell lines. Human HepG2 (ATCC HB-8065) were maintained in MEM media with 10% FBS and the mouse hepatocyte cell line AML12 (ATCC, Manassas, VA; CRL-2254) in DMEM/F12 media supplemented with dexamethasone (40 ng/ml) and Insulin-Transferrin-Selenium (Gibco, Waltham, MA; 41400045), containing 10% FBS and 1% penicillin and streptomycin. JS1 (RRID: CVCL_C7PL), LX2 (RRID: CVCL_5792, MilliporeSigma, Burlington, MA; SCC064) and TWNT4 (RRID: CVCL_W296) cells were cultured in DMEM supplemented with 10% FBS. 293T cells (ATCC, Manassas, VA; CRL-3216) were cultured in DMEM supplemented with 10% FBS.
(§2) Cell proliferation assays. Primary mouse hepatocytes, HepG2 or AML 12 cells were grown in opaque-walled 96-well plates. NTF3 (final concentration 20 ng/ml) (STEMCELL Technologies, Vancouver, Canada; cat. 78074) and/or Loxo-195 (final concentration 5 nM) (Selleckchem, Houston, TX; S8636) were added into complete growth media without L-glutamine. Primary mouse hepatocytes were also grown in serum-free William's E media without supplements. Cells were analyzed by CellTiter-Glo® (Promega G7570, Madison, WI) which detects the number of viable cells on day 0 to day 5 by on detection systems GloMax® (Promega) or Bioteck Synergy H1 (Agilent, Santa Clara, CA). Mouse recombinant HGF (Abcam, Cambridge, UK; ab281797) was added to cell culture media at a final concentration 5 ng/ml. […]

AML12 cells = test: Cell proliferation assay (CellTiter-Glo) in AML12 cells; type: cell-based, mouse; settings: Loxo-195 final concentration 5 nM, AML12
Procedure: as §1, §2

CCND1 = test: Western blot of CCND1 in HepG2 cell lysates; type: cell-based, human; settings: HepG2, Loxo-195 5-10 nM added to NTF3
Procedure: Human HepG2 and mouse AML12 cells were grown in 6-well plates. Cells were treated with NTF3 (20 ng/ml) purchased from STEMCELL technologies, Vancouver, Canada (cat. 78074), R&D Systems, Minneapolis, MN (267-N3), Gibco, Waltham, MA (PHC7036) and/or Loxo-195 (5-10 nM) (Selleckchem, Houston, TX; S8636) in complete growth media without L-glutamine for 2 hours. Lyophilized NTF3 was solubilized with sterile filtered PBS supplemented with 0.1% BSA, aliquoted and stored at −80° C. until use. […] HepG2 and AML12 cells were collected on ice in PBS, centrifuged for 10 sec […] cell pellet homogenized in RIPA buffer containing inhibitors (Roche, Basel, Switzerland; complete Mini proteinase inhibitor, 1×HALT phosphatase inhibitors, Thermo Scientific, Waltham, MA; cat. 78428). Cell lysates were sonicated and centrifuged for 10 min at 18,800×g. Protein concentration of supernatants were determined by Direct Detect Spectrophotometer (MilliporeSigma, Burlington, MA).
(§3) For immunoblot analysis, 30-50 μg of protein diluted in LSD sample buffer (Invitrogen, Waltham, MA) were analyzed per SDS-PAGE (NuPAGE™, Invitrogen, Waltham, MA) using MOPS buffer or MES buffer (Invitrogen, Waltham, MA). Gels were stained with Coomassie (Bio-Safe Coomassie G-250 Stain, Bio-Rad, Hercules, CA) and transferred onto PVDF membranes using semi-dry blotting (Trans-Blot SD, Bio-Rad, Hercules, CA). Images were visualized on an Amersham™ Imager 680 (Cytiva, Marlborough, MA). Semi-quantitative band densitometry was performed using ImageJ software (version 1.53).

[3] = system: P-TRKA Tyr674/675, P-TRKB Tyr706/707; test: Western blot of phosphorylated TRK in HepG2 cell lysates; type: cell-based, human; settings: HepG2, Loxo-195 added to NTF3
Procedure: Human HepG2 and mouse AML12 cells were grown in 6-well plates. […] Lyophilized NTF3 was solubilized with sterile filtered PBS supplemented with 0.1% BSA, aliquoted and stored at −80° C. until use. […] Cell lysates were sonicated and centrifuged for 10 min at 18,800×g. Protein concentration of supernatants were determined by Direct Detect Spectrophotometer (MilliporeSigma, Burlington, MA).
as §3, with “MA).” for “MA). Semi-quantitative band densitometry was performed using ImageJ software (version 1.53).”

TrkB [4] = biological target: T1, TrkB; settings: read-out: Kd (agonist of TrkB); cited from earlier work
[5] = in vivo, cited from earlier work
mTORC1 = test: Immunoblotting of HDOs for P-S6RP and P-P70S6K (mTORC1 activation); type: cell-based, human
Procedure: Human ductal organoids. The normal human liver tissue was obtained through the Cooperative Human Tissue Network (CHTN) at Vanderbilt University Medical Center. The liver was cut into very small pieces in liver digestion medium (Gibco, Waltham, MA; 17703-034). The cell suspension was filtered through a 100-μm cell strainer. The flow through was then centrifuged for 2 min at 100 g, 4° C., and the cell pellet resuspended in ice-cold DMEM (Gibco, Waltham, MA; 11885-084, supplemented by 5% FBS) and centrifuged for 2 min at 300 g. The cell pellet was gently resuspended in Matrigel® (Corning, Corning, NY; 356231) and a […] dome plated in a 24-well plate. The plate was incubated for 10-15 min at 37° C. After solidifying, complete HepatiCult™ Organoid Initiation Medium (OIM) (STEMCELL Technologies, Vancouver, Canada; 100-0384) was added. For passaging, the Matrigel dome was dissociated using TrypLE (Thermo Fisher Scientific, Waltham, MA; 12604013) and incubated at 37° C. for 5 mins. Organoids were washed by resuspending in advanced DMEM/F12 and consecutive resuspension of the organoid pellet. Organoids were resuspended at a 1:10 dilution in Matrigel® and cultured in complete HepatiCult™ Organoid Growth Medium (OGM) (STEMCELL Technologies, Vancouver, Canada; 100-0385) for organoid expansion. For hepatocytic differentiation of hepatic ductal organoids, culture medium was changed to complete HepatiCult™ Organoid Differentiation Medium (ODM) (STEMCELL Technologies, 100-0383) 4 days after passaging. Vehicle, NTF3, BDNF, HGF (20 ng/ml final concentration) or Taletrectinib (Fisher Scientific, Waltham, MA; 502030245, final concentration 10 nM) or torin2 (Fisher Scientific, Waltham, MA; s2817, final concentration 25 nM) were diluted in William's E (without L-glutamine) and added to organoids.
Immunoblotting. HDOs and mpPHH were homogenized in RIPA buffer containing proteinase inhibitors (Roche, Basel, Switzerland; cOmplete™ Mini protease inhibitor, 2 tab/10 ml buffer) and 1×HALT phosphatase inhibitors (Thermo Fisher Scientific, Waltham, MA; catalog no. 78428). Lysates were sonicated and then centrifuged for 10 min at 18,800 g. Protein concentration of supernatants was determined by Direct Detect Spectrophotometer (MilliporeSigma, Burlington, MA). HDOs were treated with growth factors as described above. Lyophilized NTF3 was solubilized with sterile-filtered PBS supplemented with 0.1% BSA, aliquoted, and stored at −80° C. until use. […] HDOs and mpPHH were collected on ice in PBS and centrifuged for 10 s, and the cell pellet was homogenized in RIPA buffer containing inhibitors (Roche, Basel, Switzerland; cOmplete™ Mini protease inhibitor, 1×HALT phosphatase inhibitors, Thermo Fisher Scientific, Waltham, MA; catalog no. 78428). Cell lysates were sonicated and centrifuged for 10 min at 18,800 g. The protein concentration of supernatants was determined by a Direct Detect® spectrophotometer (MilliporeSigma, Burlington, MA). For immunoblot analysis, 10 to 50 μg of protein diluted in […] sample buffer (Invitrogen, Waltham, MA) were analyzed per SDS-polyacrylamide gel electrophoresis (NuPAGE™, Invitrogen, Waltham, MA) using Mops buffer or MES buffer (Invitrogen, Waltham, MA). […] Semi-quantitative band densitometry was performed using ImageJ software (version 1.53).

mTOR = test: Immunoblotting of mpPHH for P-S6RP and P-P70S6K (mTOR activation); type: cell-based, human; settings: co-incubation with Torin2
Procedure: (§4) Mouse passaged primary human hepatocytes. Mouse-passaged primary human hepatocytes (mpPHHs) were collected as previously described (Michailidis et al., Proc Natl Acad Sci USA. 2020; 117(3): 1678-1688) and cultured in hepatocyte culture media (CC-3198, Lonza, Basel, Switzerland) in collagen-coated chamber slides. Three days before treatment, mpPHH were incubated in William's E media (with L-glutamine). […] 5-15 images per treatment per experiment were randomly taken and EdU positive nuclei quantified.
(§5) Immunoblotting. […] Protein concentration of supernatants was determined by Direct Detect Spectrophotometer (MilliporeSigma, Burlington, MA). […] The protein concentration of supernatants was determined by a Direct Detect® spectrophotometer (MilliporeSigma, Burlington, MA). For immunoblot analysis, 10 to 50 μg of protein diluted in […] sample buffer (Invitrogen, Waltham, MA) were analyzed per SDS-polyacrylamide gel electrophoresis (NuPAGE™, Invitrogen, Waltham, MA) using Mops buffer or MES buffer (Invitrogen, Waltham, MA). […] Semi-quantitative band densitometry was performed using ImageJ software (version 1.53).

CCND1 and PCNA [6] = test: Immunoblotting of HDOs for CCND1 and PCNA; type: cell-based, human; settings: co-incubation with torin2
Procedure: Human ductal organoids. The normal human liver tissue was obtained through the Cooperative Human Tissue Network (CHTN) at Vanderbilt University Medical Center. The liver was cut into very small pieces in liver digestion medium (Gibco, Waltham, MA; 17703-034). The cell suspension was filtered through a 100-μm cell strainer. The flow through was then centrifuged for 2 min at 100 g, 4° C., and the cell pellet resuspended in ice-cold DMEM (Gibco, Waltham, MA; 11885-084, supplemented by 5% FBS) and centrifuged for 2 min at 300 g. The cell pellet was gently resuspended in Matrigel® (Corning, Corning, NY; 356231) and a […] dome plated in a 24-well plate. The plate was incubated for 10-15 min at 37° C. […]
as §5

CCND1 and PCNA [7] = test: Immunoblotting of mpPHH for CCND1 and PCNA; type: cell-based, human; settings: mpPHHs, co-incubation with torin2
Procedure: as §4, §5

[8] = biological target: TRKB (tropomyosin receptor kinase B, encoded by Ntrk2) on primary mouse hepatocytes (mouse) (UniProt P15209); test: cell-based or functional assay
TRKB (tropomyosin receptor kinase B, encoded by Ntrk2) on primary mouse hepatocytes (mouse), sequence (P15209 32-821): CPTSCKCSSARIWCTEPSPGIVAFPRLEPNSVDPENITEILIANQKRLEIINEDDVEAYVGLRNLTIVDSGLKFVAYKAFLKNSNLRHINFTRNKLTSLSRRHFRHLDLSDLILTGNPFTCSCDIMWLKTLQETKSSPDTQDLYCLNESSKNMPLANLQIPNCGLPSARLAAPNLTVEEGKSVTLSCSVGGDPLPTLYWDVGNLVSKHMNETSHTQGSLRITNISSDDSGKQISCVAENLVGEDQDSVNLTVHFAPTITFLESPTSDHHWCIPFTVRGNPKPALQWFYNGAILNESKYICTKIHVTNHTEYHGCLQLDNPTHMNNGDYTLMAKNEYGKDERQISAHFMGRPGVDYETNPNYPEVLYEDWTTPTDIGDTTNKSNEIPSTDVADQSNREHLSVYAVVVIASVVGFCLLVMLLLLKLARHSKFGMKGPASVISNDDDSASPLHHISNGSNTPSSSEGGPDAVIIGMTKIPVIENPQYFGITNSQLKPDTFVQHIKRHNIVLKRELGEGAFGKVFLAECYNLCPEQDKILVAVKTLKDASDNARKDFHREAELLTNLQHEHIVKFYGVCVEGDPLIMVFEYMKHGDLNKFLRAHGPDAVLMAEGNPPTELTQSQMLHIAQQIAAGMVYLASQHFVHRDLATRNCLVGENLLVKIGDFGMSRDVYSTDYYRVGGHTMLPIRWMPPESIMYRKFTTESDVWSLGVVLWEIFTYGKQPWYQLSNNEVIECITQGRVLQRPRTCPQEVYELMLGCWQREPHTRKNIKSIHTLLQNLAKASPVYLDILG

T1 sequence (Q16620 32-822, species assumed): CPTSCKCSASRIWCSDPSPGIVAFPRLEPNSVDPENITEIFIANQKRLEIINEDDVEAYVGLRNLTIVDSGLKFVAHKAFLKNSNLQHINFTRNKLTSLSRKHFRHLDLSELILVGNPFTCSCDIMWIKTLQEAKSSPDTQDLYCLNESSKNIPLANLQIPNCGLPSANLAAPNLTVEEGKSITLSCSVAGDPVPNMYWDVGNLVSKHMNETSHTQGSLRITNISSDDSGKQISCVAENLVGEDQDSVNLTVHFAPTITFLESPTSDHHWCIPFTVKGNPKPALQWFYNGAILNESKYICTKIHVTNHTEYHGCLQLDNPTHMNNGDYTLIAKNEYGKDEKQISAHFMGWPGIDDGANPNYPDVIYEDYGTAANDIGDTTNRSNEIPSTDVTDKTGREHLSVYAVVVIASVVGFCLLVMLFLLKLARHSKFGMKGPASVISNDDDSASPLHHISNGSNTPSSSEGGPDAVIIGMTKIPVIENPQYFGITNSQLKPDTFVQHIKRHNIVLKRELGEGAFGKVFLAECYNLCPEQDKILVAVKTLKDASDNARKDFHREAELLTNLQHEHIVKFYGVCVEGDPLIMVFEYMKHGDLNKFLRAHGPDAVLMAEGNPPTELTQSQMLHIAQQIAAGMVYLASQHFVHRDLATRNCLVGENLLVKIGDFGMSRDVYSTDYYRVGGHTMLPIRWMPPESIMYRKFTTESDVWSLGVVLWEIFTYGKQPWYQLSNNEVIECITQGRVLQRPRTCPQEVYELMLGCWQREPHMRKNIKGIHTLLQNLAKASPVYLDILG

For `Nc1nc(O)c2ncn(COC(CO)CO)c2n1` [ganciclovir], the “depletion rate of proliferating HSCs” value (proliferating HSCs) is given as “approximately 65%”.
In the case of `O=C(NCCO)c1cc(C(=O)NCCO)cc(C(=O)NCCO)c1` [LM22A-4], the “intrinsic activity (IA)” value (TrkB [1]; partial agonist of TrkB) is given as “about 85%”, the pEC50 (TrkB [1]; read-out: EC50 for TrkB activation) is given as 9.30 to 9.70 and the pIC50 (TrkB [2]) is given as 7.33.
With `C[C@@H]1CCc2ncc(F)cc2[C@H]2CCCN2c2ccn3ncc(c3n2)C(=O)N1` [Loxo-195, reference compound] the “inhibition of NTF3-induced proliferation” value (HepG2 cells) was “significantly inhibited proliferation”, the “inhibition of NTF3-induced proliferation” value (AML12 cells) was “significantly inhibited proliferation” and the “effect on NTF3-induced CCND1 abundance” value (CCND1) was “inhibited”. For the same molecule, the “effect on NTF3-induced TRK phosphorylation” value [3] was “decreased”.
In the case of `O=c1cc(-c2ccccc2)oc2c(O)c(O)ccc12` [7,8-DHF, 7,8-dihydroxyflavone], the pKd (TrkB [4]) is given as roughly 6.49, the oral bioavailability ([5]; po) is given as “orally bioavailable” and the blood-brain barrier penetration [5] is given as “able to penetrate the blood-brain barrier”.
With `Nc1ccc(-c2ccc3ncc4ccc(=O)n(-c5cccc(C(F)(F)F)c5)c4c3c2)cn1` [Torin2, reference compound] the “effect on NTF3- or insulin-induced phosphorylation of p70S6 kinase and S6RP” value (mTORC1; HDO, co-incubation with Torin2 25 nM) was “decreased”, the “phosphorylated S6rp (Ser240/244)” value (mTORC1; HDOs cultured in glutamine free media, coincubation (FIG. 18G), Torin2 25 nM) was “decreased phosphorylated S6rp” and the “effect on NTF3-induced P-S6RP and P-P70S6K” value (mTOR) was “inhibited”. The “effect on NTF3-induced CCND1 and PCNA” value (CCND1 and PCNA [6]) was “inhibited” and the “effect on NTF3-induced CCND1 and PCNA” value (CCND1 and PCNA [7]) was “inhibited”.
“recombinant neurotrophin-3 (NTF3) (from UniProt P20783 139-257) (ligand)” gave a proliferation of primary mouse hepatocytes (CellTiter-Glo), NTF3 20 ng/ml against vehicle [8] of 1.5 fold.
